{"source": "DBAASP", "assay_in_all_cases": "≥ marks a high value that may be exact or a test limit, other limits are often not marked, values filed in µg/mL are converted to µM", "key": {"[1]": {"tested_on": "Pseudomonas putida ATCC 17426"}, "[2]": {"tested_on": "Streptococcus mutans ATCC 25175"}, "[3]": {"tested_on": "Saccharomyces cerevisiae ATCC 44774"}, "[4]": {"tested_on": "Cryptococcus neoformans ATCC 34881"}, "[5]": {"tested_on": "Staphylococcus aureus ATCC 15752"}, "[6]": {"tested_on": "Escherichia coli ATCC 27325"}, "[7]": {"tested_on": "Candida albicans ATCC 10231"}, "[8]": {"tested_on": "Salmonella enterica subsp. enterica serovar Enteritidis ATCC 13076"}, "[9]": {"tested_on": "Bacillus subtilis ATCC 62037"}, "[10]": {"tested_on": "Escherichia coli KCTC 1682"}, "[11]": {"tested_on": "Pseudomonas aeruginosa KCTC 1637"}, "[12]": {"tested_on": "Aspergillus fumigatus KCTC 4165"}, "[13]": {"tested_on": "Candida albicans TIMM 1768"}, "[14]": {"tested_on": "Streptococcus pyogenes KCTC 3096"}, "[15]": {"tested_on": "Bacillus subtilis KCTC 1918"}, "[16]": {"tested_on": "Staphylococcus aureus KCTC 1621"}, "[17]": {"tested_on": "Salmonella typhimurium KCTC 1926"}, "[18]": {"tested_on": "Staphylococcus aureus ATCC 6538P"}, "[19]": {"tested_on": "Staphylococcus epidermidis ATCC 12228"}, "[20]": {"tested_on": "Escherichia coli ATCC 25922"}, "[21]": {"tested_on": "Micrococcus luteus ATCC 10240"}, "[22]": {"tested_on": "Bacillus subtilis ATCC 6633"}, "[23]": {"tested_on": "Klebsiella pneumoniae ATCC 10031"}, "[24]": {"tested_on": "Pseudomonas aeruginosa ATCC 27853"}, "[25]": {"tested_on": "Salmonella enterica subsp. enterica serovar Typhimurium ATCC 14028"}, "[26]": {"tested_on": "Staphylococcus aureus TK784"}, "[27]": {"tested_on": "Shigella dysenteriae ATCC 9752"}, "[28]": {"tested_on": "Escherichia coli DSM 10233"}, "Escherichia coli BL21AI": {"tested_on": "Escherichia coli BL21AI"}, "Escherichia coli 1103": {"tested_on": "Escherichia coli 1103"}, "[29]": {"tested_on": "Bacillus subtilis DSM 347"}, "[30]": {"tested_on": "Klebsiella pneumoniae DSM 681"}, "[31]": {"tested_on": "Trichophyton mentagrophytes IFO 5466"}, "Pseudomonas aeruginosa": {"tested_on": "Pseudomonas aeruginosa"}, "[32]": {"tested_on": "Staphylococcus aureus KO-4"}, "[33]": {"tested_on": "Trypanosoma brucei brucei GUT Tat3.1"}, "[34]": {"tested_on": "Staphylococcus aureus CCARM 3001"}, "[35]": {"tested_on": "Staphylococcus epidermidis KCTC 1917"}, "[36]": {"tested_on": "Pseudomonas aeruginosa CCARM 2095"}, "[37]": {"tested_on": "Staphylococcus aureus CCARM 3543"}, "[38]": {"tested_on": "Pseudomonas aeruginosa CCARM 2109"}, "[39]": {"tested_on": "Bacillus subtilis KCTC 3068"}}}
{"smiles": "CC(C)[C@H](NC(=O)[C@H](CCCCN)NC(=O)CNC(=O)CNC(=O)[C@H](CCC(N)=O)NC(=O)[C@H](CCCCN)NC(=O)CNC(=O)[C@H](CCCN=C(N)N)NC(=O)CNC(=O)[C@H](C)N)C(=O)N[C@@H](CCCN=C(N)N)C(=O)N[C@@H](C)C(=O)N[C@@H](CCCCN)C(=O)N[C@@H](C)C(=O)N[C@@H](CCCCN)C(=O)N[C@H](C(=O)N[C@@H](CCCN=C(N)N)C(=O)N[C@@H](CO)C(=O)N[C@@H](CO)C(=O)O)[C@@H](C)O", "note": "[AGRGKQGGKVRAKAKTRSS]", "values": [{"measurement": "MIC", "setting": "[1]", "result": 2.06, "unit": "µM"}, {"measurement": "MIC", "setting": "[2]", "result": 8.23, "unit": "µM"}, {"measurement": "MIC", "setting": "[3]", "result": 4.12, "unit": "µM"}, {"measurement": "MIC", "setting": "[4]", "result": 4.12, "unit": "µM"}, {"measurement": "MIC", "setting": "[5]", "result": 8.23, "unit": "µM"}, {"measurement": "MIC", "setting": "[6]", "result": 2.06, "unit": "µM"}, {"measurement": "MIC", "setting": "[7]", "result": 8.23, "unit": "µM"}, {"measurement": "MIC", "setting": "[8]", "result": 8.23, "unit": "µM"}, {"measurement": "MIC", "setting": "[9]", "result": 4.12, "unit": "µM"}]}
{"smiles": "CC[C@H](C)[C@H](NC(=O)[C@H](CCCCN)NC(=O)[C@H](CCCCN)NC(=O)[C@H](CC(C)C)NC(=O)[C@H](CCCCN)NC(=O)[C@H](CCC(=O)O)NC(=O)CN)C(=O)NCC(=O)N[C@@H](CCCCN)C(=O)N[C@@H](CCCCN)C(=O)N[C@H](C(=O)N[C@@H](CCCCN)C(=O)N[C@@H](CC(N)=O)C(=O)N[C@@H](Cc1ccccc1)C(=O)N[C@@H](Cc1ccccc1)C(=O)N[C@@H](CCC(N)=O)C(=O)N[C@@H](CCCCN)C(=O)N[C@@H](CC(C)C)C(=O)O)[C@@H](C)CC", "note": "[GEKLKKIGKKIKNFFQKL]", "values": [{"measurement": "MIC", "setting": "[10]", "result": 12.5, "unit": "µM"}, {"measurement": "MIC", "setting": "[11]", "result": 3.12, "unit": "µM"}, {"measurement": "MIC", "setting": "[12]", "result": 25, "unit": "µM"}, {"measurement": "MIC", "setting": "[13]", "result": 25, "unit": "µM"}, {"measurement": "MIC", "setting": "[14]", "result": 25, "unit": "µM"}, {"measurement": "MIC", "setting": "[15]", "result": 12.5, "unit": "µM"}, {"measurement": "MIC", "setting": "[16]", "result": 12.5, "unit": "µM"}, {"measurement": "MIC", "setting": "[17]", "result": 6.25, "unit": "µM"}]}
{"smiles": "CC(C)C[C@H](NC(=O)[C@H](Cc1c[nH]c2ccccc12)NC(=O)[C@H](CCCCN)NC(=O)[C@H](CCCCN)NC(=O)[C@H](CC(C)C)NC(=O)[C@H](Cc1c[nH]c2ccccc12)NC(=O)[C@H](CCCCN)NC(=O)[C@H](CCCCN)NC(=O)[C@@H](N)CC(C)C)C(=O)N[C@@H](CCCCN)C(=O)N[C@@H](CCCCN)C(N)=O", "note": "[LKKWLKKWLKK]", "values": [{"measurement": "MIC", "setting": "[18]", "result": 6.67, "unit": "µM"}, {"measurement": "MIC", "setting": "[19]", "result": 26.7, "unit": "µM"}, {"measurement": "MIC", "setting": "[20]", "result": 13.3, "unit": "µM"}, {"measurement": "MIC", "setting": "[21]", "result": 26.7, "unit": "µM"}, {"measurement": "MIC", "setting": "[22]", "result": 13.3, "unit": "µM"}, {"measurement": "MIC", "setting": "[23]", "result": "≥ 53.4", "unit": "µM"}, {"measurement": "MIC", "setting": "[24]", "result": 26.7, "unit": "µM"}, {"measurement": "MIC", "setting": "[25]", "result": "> 53.4", "unit": "µM"}, {"measurement": "MIC", "setting": "[26]", "result": "≥ 53.4", "unit": "µM"}, {"measurement": "MIC", "setting": "[27]", "result": "≥ 53.4", "unit": "µM"}]}
{"smiles": "CC[C@H](C)[C@H](NC(=O)[C@@H]1CCCN1C(=O)[C@H](CCC(N)=O)NC(=O)[C@@H]1CCCN1C(=O)[C@H](CCCN=C(N)N)NC(=O)[C@@H]1CCCN1C(=O)[C@@H]1CCCN1C(=O)[C@H](Cc1cnc[nH]1)NC(=O)[C@@H]1CCCN1C(=O)[C@H](CCCN=C(N)N)NC(=O)[C@@H](N)CC(C)C)C(=O)N[C@@H](Cc1ccc(O)cc1)C(=O)N[C@H](C(=O)N1CCC[C@H]1C(=O)N[C@@H](CCCN=C(N)N)C(=O)N[C@@H](CC(N)=O)C(=O)N[C@@H](CC(N)=O)C(=O)NCC(N)=O)C(C)C", "note": "[LRPHPPRPQPIYVPRNNG]", "values": [{"measurement": "MIC", "setting": "[21]", "result": "≥ 59.3", "unit": "µM"}, {"measurement": "MIC", "setting": "[28]", "result": "≥ 59.3", "unit": "µM"}, {"measurement": "MIC", "setting": "Escherichia coli BL21AI", "result": "≥ 59.3", "unit": "µM"}, {"measurement": "MIC", "setting": "Escherichia coli 1103", "result": "≥ 59.3", "unit": "µM"}, {"measurement": "MIC", "setting": "[29]", "result": "≥ 59.3", "unit": "µM"}, {"measurement": "MIC", "setting": "[30]", "result": "≥ 59.3", "unit": "µM"}]}
{"smiles": "CC[C@H](C)[C@H](NC(=O)[C@H](CCCN=C(N)N)NC(=O)[C@H](CC(C)C)NC(=O)[C@H](Cc1ccc(O)cc1)NC(=O)[C@H](CC(C)C)NC(=O)[C@@H](N)CCCN=C(N)N)C(=O)NCC(=O)N[C@@H](CCCN=C(N)N)C(=O)N[C@@H](CCCN=C(N)N)C(N)=O", "note": "[RLYLRIGRR]", "values": [{"measurement": "MIC", "setting": "[31]", "result": 20.8, "unit": "µM"}, {"measurement": "MIC", "setting": "Pseudomonas aeruginosa", "result": 333, "unit": "µM"}, {"measurement": "MIC", "setting": "[32]", "result": "≥ 499", "unit": "µM"}, {"measurement": "MIC", "setting": "[33]", "result": "≥ 205", "unit": "µM"}]}
{"smiles": "NC(=O)[C@H](CCCN=C(N)N)NC(=O)[C@H](CCCN=C(N)N)NC(=O)[C@H](Cc1c[nH]c2ccccc12)NC(=O)[C@H](CCCN=C(N)N)NC(=O)[C@H](CCCN=C(N)N)NC(=O)[C@H](Cc1c[nH]c2ccccc12)NC(=O)[C@H](CCCN=C(N)N)NC(=O)[C@H](CCCN=C(N)N)NC(=O)[C@H](Cc1c[nH]c2ccccc12)NC(=O)[C@H](CCCN=C(N)N)NC(=O)[C@@H](N)CCCN=C(N)N", "note": "[RRWRRWRRWRR]", "values": [{"measurement": "MIC", "setting": "[34]", "result": 8, "unit": "µM"}, {"measurement": "MIC", "setting": "[35]", "result": 2, "unit": "µM"}, {"measurement": "MIC", "setting": "[36]", "result": 16, "unit": "µM"}, {"measurement": "MIC", "setting": "[10]", "result": 8, "unit": "µM"}, {"measurement": "MIC", "setting": "[37]", "result": 4, "unit": "µM"}, {"measurement": "MIC", "setting": "[11]", "result": 8, "unit": "µM"}, {"measurement": "MIC", "setting": "[38]", "result": 16, "unit": "µM"}, {"measurement": "MIC", "setting": "[39]", "result": 4, "unit": "µM"}, {"measurement": "MIC", "setting": "[16]", "result": 8, "unit": "µM"}, {"measurement": "MIC", "setting": "[17]", "result": 4, "unit": "µM"}]}
